A compilation of properties of binary mixtures (doi:10.1039/c7cp05886a)

Assay: xn = mol fraction of the nth substance listed
Settings: 298.15 K, 100 kPa

CCCCCCCC[N+]1(C)CCCC1.O=S(=O)([N-]S(=O)(=O)C(F)(F)F)C(F)(F)F + CCCCOC(C)=O
Settings	electrical conductivity [S/m]	viscosity [mPa·s]
x2 = 0	0.082	138.2
x2 = 0.481	0.256	–
x2 = 0.4969	–	17.37
x2 = 0.6954	–	7.1
x2 = 0.7372	0.361	–
x2 = 0.7499	–	5.07
x2 = 0.8031	–	3.42
x2 = 0.8484	–	2.5
x2 = 0.8928	0.242	–
x2 = 0.9016	–	1.732
x2 = 0.9431	–	1.202
x2 = 0.9456	0.131	–

CCCCCCCC[n+]1ccccc1.O=S(=O)([N-]S(=O)(=O)C(F)(F)F)C(F)(F)F + CCCCOC(C)=O
Settings	electrical conductivity [S/m]	viscosity [mPa·s]
x2 = 0	0.097	104.1
x2 = 0.2414	0.166	–
x2 = 0.2556	–	49.6
x2 = 0.481	0.271	–
x2 = 0.501	–	18.43
x2 = 0.6984	–	6.82
x2 = 0.7372	0.384	–
x2 = 0.7522	–	4.87
x2 = 0.7923	0.377	–
x2 = 0.7996	–	3.57
x2 = 0.8427	0.333	–
x2 = 0.8487	–	2.47
x2 = 0.8928	0.258	–
x2 = 0.8996	–	1.732
x2 = 0.9456	0.124	–
x2 = 0.9493	–	1.227

CCCCCCCCn1cc[n+](C)c1.O=S(=O)([N-]S(=O)(=O)C(F)(F)F)C(F)(F)F + CCCCOC(C)=O
Settings	electrical conductivity [S/m]	viscosity [mPa·s]
x2 = 0.2622	–	44.2
x2 = 0.481	0.307	–
x2 = 0.5001	–	17.1
x2 = 0.6824	0.407	–
x2 = 0.7372	0.414	–
x2 = 0.7503	–	4.99
x2 = 0.7923	0.406	–
x2 = 0.797	–	3.47
x2 = 0.8503	–	2.53
x2 = 0.8928	0.279	–
x2 = 0.8976	–	1.73
x2 = 0.9305	–	1.308
x2 = 0.9456	0.19	–

CCCCOC(C)=O + CCCC[n+]1ccn(C)c1.O=S(=O)([N-]S(=O)(=O)C(F)(F)F)C(F)(F)F
Settings	electrical conductivity [S/m]	viscosity [mPa·s]
x1 = 0.2414	0.529	26
x1 = 0.481	0.67	11.88
x1 = 0.6824	0.725	4.9
x1 = 0.7372	0.704	3.42
x1 = 0.7923	0.654	2.65
x1 = 0.8427	0.535	2.043
